PMC11288311 (Cell chemical biology, 2022)

Experiments:
[1] = test system: endogenous LRH-1 in Huh7 hepatocytes; assay: qRT-PCR of LRH-1 targets in Huh7 hepatocytes; assay type: cell-based, human; conditions: Huh7, 24-hour treatment
[2] = test system: hLRH-1 enteroids; assay: Gene expression in TNF-stimulated humanized LRH-1 mouse intestinal enteroids; assay type: cell-based; conditions: 1 μM overnight, not observed in LRH-1-deficient enteroids
[3] = molecular target: mouse LRH-1 (Mus musculus, UniProt P45448); assay: Activation of mouse LRH-1 in vitro
Sequence of mouse LRH-1 (P45448 whole entry): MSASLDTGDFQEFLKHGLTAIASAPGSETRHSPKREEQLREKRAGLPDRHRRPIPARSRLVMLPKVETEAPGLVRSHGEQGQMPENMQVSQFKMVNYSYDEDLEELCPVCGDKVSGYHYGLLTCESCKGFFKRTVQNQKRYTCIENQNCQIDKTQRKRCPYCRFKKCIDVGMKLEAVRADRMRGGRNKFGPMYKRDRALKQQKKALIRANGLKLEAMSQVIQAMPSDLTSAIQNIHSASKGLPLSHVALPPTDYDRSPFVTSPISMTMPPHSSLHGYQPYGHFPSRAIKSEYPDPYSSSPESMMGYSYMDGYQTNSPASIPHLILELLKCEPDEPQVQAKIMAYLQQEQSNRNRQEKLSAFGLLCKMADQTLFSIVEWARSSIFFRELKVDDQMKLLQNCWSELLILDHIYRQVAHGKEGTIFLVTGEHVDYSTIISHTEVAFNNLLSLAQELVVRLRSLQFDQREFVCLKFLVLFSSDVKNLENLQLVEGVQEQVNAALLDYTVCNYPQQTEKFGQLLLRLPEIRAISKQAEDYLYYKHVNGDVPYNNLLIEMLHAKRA

[4] = test system: LRH-1 K520A; assay: Luciferase reporter assay with LRH-1 K520A mutant; assay type: cell-based, human; conditions: K520A mutation, 30 μM, 24 hours
[5] = test system: hLRH1 IEC Rag2-/- mice; assay: T cell transfer; assay type: in vivo, mouse; conditions: 20 mg/kg i.p., 16 days
[6] = test system: human LRH-1 (hLRH-1) in the liver; assay: Liver gene expression
[7] = Aqueous solubility by LC-MS in PBS; assay type: physicochemical; conditions: PBS pH 7.4, 25°C, 2 hours
[8] = test system: LRH-1 LBD Y516A or K520A; assay type: binding, human; conditions: Y516A or K520A mutation

Structure (SMILES)	Expression of LRH-1 targets SHP (NR0B2) and PLK3 [1]	Expression of de novo lipogenesis targets SREBF1, ACACB, FASN, SCD1 [1]	Expression of Cyp11a1 and Il-10 [2]	Activation of mouse LRH-1 [3]	Reduction of activation versus WT LRH-1 [4]	Body weight at end of study relative to mean pre-treatment body weight [5]	Colon histology scores [5]	Expression of LRH-1 targets Cyp8b1, Cyp11a1, Cyp11b1 in colonic crypts [5]	Liver expression of lipogenic genes (Fasn, Acacb, Scd1) ([6]; 0.1, 1 or 10 mg/kg, five i.p. injections over three days)	Liver expression of Srebf1 ([6]; not statistically significant, p = 0.09 versus vehicle)	Aqueous solubility limit [7]	Decrease in binding affinity, mutant versus WT LRH-1 [8]
C=C(c1ccccc1)[C@@]12CC[C@@H](O)[C@@H]1CC(CCCCCCCCCC(=O)O)=C2c1ccccc1 [Compound 10CA]	dose-dependently upregulates	downregulates	induces expression	poor activators of mouse LRH-1	around 60%	≤ 1%	markedly improved	strong upregulation	downregulation of lipogenic genes	trends lower	–	–
C=C(c1ccccc1)[C@@]12CC[C@@H](O)[C@@H]1CC(CCCCCC)=C2c1ccccc1 [RJW100]	–	–	–	–	–	–	–	–	–	–	2.9 µM	insensitive or less sensitive
